≈ marks a conversion by molar mass, not a printed value.
Test system: THP1-Dual™ cells (IRF-Lucia luciferase reporter)
Experiment: THP1-Dual™ cell reporter assay
Type: cell-based, human
Details: for EC50: Homo sapiens, THP1-Dual, small molecules, 24 h, >10,000 nM = minimal activity up to 10 μM, read-out: EC50, Lucia reporter signal; for EC50 / EC50, Lucia reporter signal: some values average of multiple experiments; for EC50, Lucia reporter signal: ADC: drug linker conjugated to targeted mAb
Description: Potency of compounds and ADCs was evaluated using the THP1-Dual™ cells (Invivogen PN: thpd-nfis [also referred to as THP1 dual reporter cells]), which contain an IRF-Lucia luciferase reporter. Cells were cultured in RPMI-1640 (Gibco) with 10% heat-inactivated fetal bovine serum, Pen-Strep (100 U/mL-100 […], Gibco), HEPES (10 mM, Gibco)), sodium pyruvate (1 mM, Gibco), MEM non-essential amino acids (1×, Gibco), GlutaMAX (1×, Gibco), and beta-mercaptoethanol (55 μM, Gibco). Cells were plated in a 96-well flat bottom tissue culture-treated clear polystyrene plate (Corning Costar #3596) at ˜100,000 cells per well in 200 μL with the indicated concentration of the compound or ADC. The supernatant was harvested at 24 hours (compounds) or 48 hours (ADC) post plating for the reporter assay, or as indicated. To measure Lucia reporter signal, 10 µL of the supernatant was combined with 40 µL of QUANTI-Luc™ Luminescence assay reagent (Invivogen PN: rep-qlc1) in a 96-well clear flat bottom tissue culture-treated black polystyrene plate (Corning Costar #3603) and read on a Perkin Elmer Envision plate reader.

Structure (SMILES) | EC50, Lucia reporter signal (48 h) | further results
CCn1nc(C)cc1C(=O)Nc1nc2cc(C(N)=O)cc(OC)c2n1C/C=C/Cn1c(NC(=O)c2cc(C)nn2CC)nc2cc(C(N)=O)cc(OCCCN(C)C(=O)CCN3C(=O)C=CC3=O)c21 [compound 12, (E)-1-(4-(5-carbamoyl-2-(1-ethyl-3-methyl-1H-pyrazole-5-carboxamido)-7-methoxy-1H-benzo[d]imidazol-1-yl)but-2-en-1-yl)-7-(3-(3-(2,5-dioxo-2,5-dihydro-1H-pyrrol-1-yl)-N-methylpropanamido)propoxy)-2-(1-ethyl-3-methyl-1H-pyrazole-5-carboxamido)-1H-benzo[d]imidazole-5-carboxamide] | – | EC50: 0.037 µM
CCn1nc(C)cc1C(=O)Nc1nc2cc(C(N)=O)cc(OC)c2n1C/C=C/Cn1c(NC(=O)c2cc(C)nn2CC)nc2cc(C(N)=O)cc(OCCCN(C)C(=O)OCc3ccc(O[C@@H]4O[C@H](C(=O)O)[C@@H](O)[C@H](O)[C@H]4O)cc3NC(=O)CCNC(=O)CCN3C(=O)C=CC3=O)c21 [compound 13] | – | relative potency / activity of ADC, Lucia reporter (drug linker conjugated to targeted mAb, 48 h): more potent when conjugated to a targeted mAb via a cleavable glucuronide linker (13) than the similar compound 1 conjugate (11)
CCn1nc(C)cc1C(=O)Nc1nc2cc(C(=O)OC)cc(OC)c2n1C/C=C/Cn1c(NC(=O)c2cc(C)nn2CC)nc2cc(C(=O)OC)cc(OCCCN(C)C(=O)CCN3C(=O)C=CC3=O)c21 [compound 66, methyl (E)-7-(3-(3-(2,5-dioxo-2,5-dihydro-1H-pyrrol-1-yl)-N-methylpropanamido)propoxy)-2-(1-ethyl-3-methyl-1H-pyrazole-5-carboxamido)-1-(4-(2-(1-ethyl-3-methyl-1H-pyrazole-5-carboxamido)-7-methoxy-5-(methoxycarbonyl)-1H-benzo[d]imidazol-1-yl)but-2-en-1-yl)-1H-benzo[d]imidazole-5-carboxylate] | >10,000 ng/mL | –
CCn1nc(C)cc1C(=O)Nc1nc2cc(C(=O)OC)cc(OC)c2n1C/C=C/Cn1c(NC(=O)c2cc(C)nn2CC)nc2cc(C(=O)OC)cc(OCCCN(C)C(=O)OCc3ccc(O[C@@H]4O[C@H](C(=O)O)[C@@H](O)[C@H](O)[C@H]4O)cc3NC(=O)CCNC(=O)CCN3C(=O)C=CC3=O)c21 [compound 67] | >10,000 ng/mL | –
CCn1nc(C)cc1C(=O)Nc1nc2cc(C(=O)O)cc(OC)c2n1C/C=C/Cn1c(NC(=O)c2cc(C)nn2CC)nc2cc(C(=O)O)cc(OCCCN(C)C(=O)CCN3C(=O)C=CC3=O)c21 [compound 68, (E)-1-(4-(5-carboxy-2-(1-ethyl-3-methyl-1H-pyrazole-5-carboxamido)-7-methoxy-1H-benzo[d]imidazol-1-yl)but-2-en-1-yl)-7-(3-(3-(2,5-dioxo-2,5-dihydro-1H-pyrrol-1-yl)-N-methylpropanamido)propoxy)-2-(1-ethyl-3-methyl-1H-pyrazole-5-carboxamido)-1H-benzo[d]imidazole-5-carboxylic acid] | >10,000 ng/mL | –
CCn1nc(C)cc1C(=O)Nc1nc2cc(C(=O)O)cc(OC)c2n1C/C=C/Cn1c(NC(=O)c2cc(C)nn2CC)nc2cc(C(=O)O)cc(OCCCN(C)C(=O)OCc3ccc(O[C@@H]4O[C@H](C(=O)O)[C@@H](O)[C@H](O)[C@H]4O)cc3NC(=O)CCNC(=O)CCN3C(=O)C=CC3=O)c21 [compound 69] | >10,000 ng/mL | –
CCn1nc(C)cc1C(=O)Nc1nc2cc(C(N)=O)cc(OC)c2n1C/C=C/Cn1c(NC(=O)c2cc(C)nn2CC)nc2cc(C(N)=O)cc(OCCCN(C)C(=O)[C@H](CC(=O)OC)NC(=O)CCN3C(=O)CC(SC[C@H](N)C(=O)O)C3=O)c21 (stereo partly drawn) [compound 72] | – | EC50: 0.275 µM
CCn1nc(C)cc1C(=O)Nc1nc2cc(C(N)=O)cc(OC)c2n1C/C=C/Cn1c(NC(=O)c2cccnn2)nc2cc(C(N)=O)cc(OCCCN(C)C(=O)CCN3C(=O)C=CC3=O)c21 [compound 96] | >10,000 ng/mL | –
CCn1nc(C)cc1C(=O)Nc1nc2cc(C(N)=O)cc(OC)c2n1C/C=C/Cn1c(NC(=O)c2ccnnc2)nc2cc(C(N)=O)cc(OCCCN(C)C(=O)CCN3C(=O)C=CC3=O)c21 [compound 98] | >10,000 ng/mL | –
CCn1nc(C)cc1C(=O)Nc1nc2cc(C(N)=O)cc(OC)c2n1C/C=C/Cn1c(NC(=O)c2ncccn2)nc2cc(C(N)=O)cc(OCCCN(C)C(=O)CCN3C(=O)C=CC3=O)c21 [compound 101] | >10,000 ng/mL | –
CCn1cc(C(=O)Nc2nc3cc(C(N)=O)cc(OCCCN(C)C(=O)CCN4C(=O)C=CC4=O)c3n2C/C=C/Cn2c(NC(=O)c3cc(C)nn3CC)nc3cc(C(N)=O)cc(OC)c32)c(C)n1 [compound 102] | >10,000 ng/mL | –
CCn1cc(C)nc1C(=O)Nc1nc2cc(C(N)=O)cc(OCCCN(C)C(=O)CCN3C(=O)C=CC3=O)c2n1C/C=C/Cn1c(NC(=O)c2cc(C)nn2CC)nc2cc(C(N)=O)cc(OC)c21 [compound 103] | >10,000 ng/mL | –
CCc1cc(C(=O)Nc2nc3cc(C(N)=O)cc(OCCCN(C)C(=O)CCN4C(=O)C=CC4=O)c3n2C/C=C/Cn2c(NC(=O)c3cc(C)nn3CC)nc3cc(C(N)=O)cc(OC)c32)n(C)n1 [compound 104] | >10,000 ng/mL | –
CCn1nc(C)cc1C(=O)Nc1nc2cc(C(N)=O)cc(OC)c2n1C/C=C/Cn1c(NC(=O)c2cc(C)nn2C)nc2cc(C(N)=O)cc(OCCCN(C)C(=O)CCN3C(=O)C=CC3=O)c21 [compound 105] | 52.5 ng/mL (≈ 56.4 nM) | –
CCc1oc(C)cc1C(=O)Nc1nc2cc(C(N)=O)cc(OCCCN(C)C(=O)CCN3C(=O)C=CC3=O)c2n1C/C=C/Cn1c(NC(=O)c2cc(C)nn2CC)nc2cc(C(N)=O)cc(OC)c21 [compound 106] | >10,000 ng/mL | –
CCn1nc(C)cc1C(=O)Nc1nc2cc(C(N)=O)cc(OC)c2n1C/C=C/Cn1c(NC(=O)c2cc(C)sn2)nc2cc(C(N)=O)cc(OCCCN(C)C(=O)CCN3C(=O)C=CC3=O)c21 [compound 107] | >10,000 ng/mL | –
CCn1nc(C)cc1C(=O)Nc1nc2cc(C(N)=O)cc(OC)c2n1C/C=C/Cn1c(NC(=O)c2ccnn2CC)nc2cc(C(N)=O)cc(OCCCN(C)C(=O)CCN3C(=O)C=CC3=O)c21 [compound 108] | 63.5 ng/mL (≈ 68.2 nM) | –
CCn1nc(C)cc1C(=O)Nc1nc2cc(C(N)=O)cc(OC)c2n1C/C=C/Cn1c(NC(=O)c2cc(C(F)(F)F)nn2CC)nc2cc(C(N)=O)cc(OCCCN(C)C(=O)CCN3C(=O)C=CC3=O)c21 [compound 109] | >10,000 ng/mL | –
CCn1nc(C)cc1C(=O)Nc1nc2cc(C(N)=O)cc(OC)c2n1C/C=C/Cn1c(NC(=O)c2c(C)cnn2C)nc2cc(C(N)=O)cc(OCCCN(C)C(=O)CCN3C(=O)C=CC3=O)c21 [compound 110] | >10,000 ng/mL | –
CCc1nc(C)sc1C(=O)Nc1nc2cc(C(N)=O)cc(OCCCN(C)C(=O)CCN3C(=O)C=CC3=O)c2n1C/C=C/Cn1c(NC(=O)c2cc(C)nn2CC)nc2cc(C(N)=O)cc(OC)c21 [compound 111] | 13.2 ng/mL (≈ 13.7 nM) | –
CCc1nc(C)oc1C(=O)Nc1nc2cc(C(N)=O)cc(OCCCN(C)C(=O)CCN3C(=O)C=CC3=O)c2n1C/C=C/Cn1c(NC(=O)c2cc(C)nn2CC)nc2cc(C(N)=O)cc(OC)c21 [compound 112] | 2 ng/mL (≈ 2.11 nM) | –
CCn1nc(C)cc1C(=O)Nc1nc2cc(C(N)=O)cc(OC)c2n1C/C=C/Cn1c(NC(=O)c2cc(C)nn2CC)nc2cc(C(N)=O)cc(OCCCN(C)C(=O)[C@H](CC(C)C)NC(=O)CCN3C(=O)C=CC3=O)c21 [compound 121] | 3.0 ng/mL (≈ 2.84 nM) | –
CCn1nc(C)cc1C(=O)Nc1nc2cc(C(N)=O)cc(OC)c2n1C/C=C/Cn1c(NC(=O)c2cc(C)nn2CC)nc2cc(C(N)=O)cc(OCCCN(C)C(=O)[C@H](Cc3ccccc3)NC(=O)CCN3C(=O)C=CC3=O)c21 [compound 122] | 5.6 ng/mL (≈ 5.13 nM) | –
CCn1nc(C)cc1C(=O)Nc1nc2cc(C(N)=O)cc(OC)c2n1C/C=C/Cn1c(NC(=O)c2cc(C)nn2CC)nc2cc(C(N)=O)cc(OCCCN(C)C(=O)[C@H](CCC(=O)OC)NC(=O)CCN3C(=O)C=CC3=O)c21 [compound 123] | 1.6 ng/mL (≈ 1.47 nM) | –
CCn1nc(C)cc1C(=O)Nc1nc2cc(C(N)=O)cc(OC)c2n1C/C=C/Cn1c(NC(=O)c2cc(C)nn2CC)nc2cc(C(N)=O)cc(OCCCN(C)C(=O)[C@H](Cc3ccc(OC)cc3)NC(=O)CCN3C(=O)C=CC3=O)c21 [compound 124] | 9.1 ng/mL (≈ 8.11 nM) | –
CCn1nc(C)cc1C(=O)Nc1nc2cc(C(N)=O)cc(OC)c2n1C/C=C/Cn1c(NC(=O)c2cc(C)nn2CC)nc2cc(C(N)=O)cc(OCCCN(C)C(=O)[C@@H](NC(=O)CCN3C(=O)C=CC3=O)[C@@H](C)OC)c21 [compound 125] | 1.4 ng/mL (≈ 1.32 nM) | –
CCn1nc(C)cc1C(=O)Nc1nc2cc(C(=O)O)cc(OC)c2n1C/C=C/Cn1c(NC(=O)c2cc(C)nn2CC)nc2cc(C(N)=O)cc(OCCCN(C)C(=O)CCN3C(=O)C=CC3=O)c21 [compound 126, (E)-1-(4-(5-carbamoyl-7-(3-(3-(2,5-dioxo-2,5-dihydro-1H-pyrrol-1-yl)-N-methylpropanamido)propoxy)-2-(1-ethyl-3-methyl-1H-pyrazole-5-carboxamido)-1H-benzo[d]imidazol-1-yl)but-2-en-1-yl)-2-(1-ethyl-3-methyl-1H-pyrazole-5-carboxamido)-7-methoxy-1H-benzo[d]imidazole-5-carboxylic acid] | >10,000 ng/mL | –

— patent US20250255981A1, “IMMUNOMODULATORY ANTIBODY-DRUG CONJUGATES” (Seagen Inc., priority 2022, published 2025)
